Values quoted from earlier work as cited in article PMC4433633, “A Heparan Sulfate-Binding Cell Penetrating Peptide for Tumor Targeting and Migration Inhibition” (BioMed Research International, 2015).

Conditions: ref [56]
Description: Although CPPs as noninvasive agents have promising biomedical potential for molecular delivery, they are mostly unfeasible for in vivo researches due to nonspecificity of their highly cationic characteristic such as TAT peptide. Due to high uptake rates in vitro and relatively low specificity in vivo of most CPPs, conventional CPPs would be designed for topical applications in CPP-based delivery (Table 1). […] Although TAT peptide (46–57) de ...

## SYGRKKRRQRRR [TAT peptide (46–57), multifunctional CPP […]]
  target specificity in vivo: low target specificity in vivo
